The results in this text go back to patent US20190374557A1, “Cyclobutyl (S)-2-[[[(R)-2-(6-aminopurin-9-yl)-1-methyl-ethoxy]methyl-phenoxy-phosphoryl]amino]-propanoates, and production process and application thereof” (ALLA CHEM, LLC, priority 2017, published 2019).

Structures are written as SMILES.

A short description of one data set: in vitro. To be noted: human, uninfected SupT1 cells (T-lymphocyte line).
Data set [1] relates to HIV strain NL4.3 carrying a gene encoding the green fluorescent protein (NL4.3-GFP). To be noted: SupT1 cells.
For data set [2] the test system is unchanged. The experiment in a line: microbe, parasite or virus in culture. Conditions: Human immunodeficiency virus 1, SUP-T1, 45 h, read-out: Activity (EC50).

Regarding `CC(C)OC(=O)[C@H](C)N[P@](=O)(CO[C@H](C)Cn1cnc2c(N)ncnc21)Oc1ccccc1` [TAF, tenofovir alafenamide], in the data set “in vitro”, the half-maximal cytotoxic concentration (CC50) was more than 100000 nM. Also, in data set [1], the “selectivity index SI = CC50/EC50” value turned out to be 2857. In addition, the EC50 in data set [2] is 35 nM.

The term CC50 denotes the concentration that lowers cell viability or growth by half. What is called EC50 is the concentration that produces a half-maximal response.
